In ChEMBL document CHEMBL1201862, “PubChem BioAssay data set” (2004):
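Protocol summary: plate cells (96-well), add compound at 5 concentrations, incubate 48 h, interpolate endpoints linearly. At the GI50, growth is halved.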 The source made the active and inactive calls. Cut-off read from the data, not from the text of the source: active = GI50 up to about 1.1 µM and inactive = higher.

Experiments:
Test in all cases: NCI-60 cell line screen, 48 h
HOP-62 = tested on: HOP-62
RXF 393 = tested on: RXF 393
COLO 205 = tested on: COLO 205
PC-3 = tested on: PC-3
NCI-H23 = tested on: NCI-H23
OVCAR-4 = tested on: OVCAR-4
MCF7 = tested on: MCF7
A498 = tested on: A498
SNB-19 = tested on: SNB-19
SF-268 = tested on: SF-268
SF-295 = tested on: SF-295
HCC 2998 = tested on: HCC 2998
HCT-15 = tested on: HCT-15
OVCAR-5 = tested on: OVCAR-5
HCT-116 = tested on: HCT-116
ACHN = tested on: ACHN
LOX IMVI = tested on: LOX IMVI
SR = tested on: SR
A549 = tested on: A549
HT-29 = tested on: HT-29

| Compound | GI50 (HOP-62) | GI50 (RXF 393) | GI50 (COLO 205) | GI50 (PC-3) | GI50 (NCI-H23) | GI50 (OVCAR-4) | GI50 (MCF7) | GI50 (A498) | GI50 (SNB-19) | GI50 (SF-268) | GI50 (SF-295) | GI50 (HCC 2998) | GI50 (HCT-15) | GI50 (OVCAR-5) | GI50 (HCT-116) | GI50 (ACHN) | GI50 (LOX IMVI) | GI50 (SR) | GI50 (A549) | GI50 (HT-29) |
| --- | --- | --- | --- | --- | --- | --- | --- | --- | --- | --- | --- | --- | --- | --- | --- | --- | --- | --- | --- | --- |
| Oc1nc2c(c(-c3cccc(Cl)c3)n1)COC/C2=C\c1cccc(Cl)c1 | > 100 µM (inactive) | > 100 µM (inactive) | > 100 µM (inactive) | > 100 µM (inactive) | > 100 µM (inactive) | > 100 µM (inactive) | > 100 µM (inactive) | > 100 µM (inactive) | > 100 µM (inactive) | > 100 µM (inactive) | > 100 µM (inactive) | > 100 µM (inactive) | > 100 µM | > 100 µM (inactive) | > 100 µM (inactive) | > 100 µM (inactive) | > 100 µM (inactive) | > 100 µM (inactive) | – | – |
| O=C(CSc1nc2ccc(I)cc2c(=O)n1Cc1ccccc1)NNC(=S)Nc1ccccc1 | – | > 100 µM (inactive) | 23.1 µM (inactive) | 9.68 µM (inactive) | 15.1 µM (inactive) | 6.53 µM (inactive) | 22.5 µM (inactive) | 3.55 µM (inactive) | 41.3 µM (inactive) | 5.27 µM (inactive) | 54 µM (inactive) | 43.3 µM (inactive) | 8.95 µM | > 100 µM (inactive) | 8.63 µM (inactive) | 18.9 µM (inactive) | > 100 µM (inactive) | 3.1 µM (inactive) | 24.6 µM (inactive) | 41.5 µM (inactive) |
| CC(C)CC(=O)CC(C)[C@]1(CCCOCc2ccccc2)C(=O)N2CCC3(C[C@@]24CCC[C@H]41)OCCO3 (stereo partly specified) | > 10 µM (inactive) | – | > 10 µM (inactive) | > 10 µM (inactive) | > 10 µM (inactive) | > 10 µM (inactive) | > 10 µM (inactive) | > 10 µM (inactive) | > 10 µM (inactive) | > 10 µM (inactive) | > 10 µM (inactive) | > 10 µM (inactive) | > 10 µM | > 10 µM (inactive) | – | – | – | > 10 µM (inactive) | – | – |
| NC(=O)/C=C/NC(=O)/C=N\O | > 100 µM (inactive) | > 100 µM (inactive) | > 100 µM (inactive) | > 100 µM (inactive) | – | > 100 µM (inactive) | > 100 µM (inactive) | > 100 µM (inactive) | > 100 µM (inactive) | > 100 µM (inactive) | > 100 µM (inactive) | > 100 µM (inactive) | > 100 µM | > 100 µM (inactive) | > 100 µM (inactive) | > 100 µM (inactive) | > 100 µM (inactive) | > 100 µM (inactive) | – | > 100 µM (inactive) |
| C/C(Cl)=N\OC(=O)Nc1ccc([N+](=O)[O-])cc1 | > 100 µM (inactive) | 16.8 µM (inactive) | 2.49 µM (inactive) | 16.2 µM (inactive) | 21.5 µM (inactive) | 13.7 µM (inactive) | 3.08 µM (inactive) | 15.3 µM (inactive) | 17.5 µM (inactive) | 21 µM (inactive) | 16.8 µM (inactive) | 15.6 µM (inactive) | 14.1 µM | 16.4 µM (inactive) | 7.94 µM (inactive) | 4.73 µM (inactive) | 5.36 µM (inactive) | 6.79 µM (inactive) | 21.6 µM (inactive) | 9.71 µM (inactive) |
| Cc1ccc(C(=O)Nc2ccc(S(=O)(=O)O)c3cc(S(=O)(=O)O)cc(S(=O)(=O)O)c23)cc1NC(=O)Nc1cc(C(=O)Nc2ccc(S(=O)(=O)O)c3cc(S(=O)(=O)O)cc(S(=O)(=O)O)c23)ccc1C | > 87.5 µM (inactive) | – | – | > 87.5 µM (inactive) | > 87.5 µM (inactive) | > 87.5 µM (inactive) | > 87.5 µM (inactive) | > 87.5 µM (inactive) | > 87.5 µM (inactive) | > 87.5 µM (inactive) | – | > 87.5 µM (inactive) | > 87.5 µM | > 87.5 µM (inactive) | > 87.5 µM (inactive) | > 87.5 µM (inactive) | > 87.5 µM (inactive) | > 87.5 µM (inactive) | > 87.5 µM (inactive) | > 87.5 µM (inactive) |
